Measured values as given in ChEMBL document CHEMBL1141683, “Substituted aryl pyrimidines as potent and soluble TRPV1 antagonists” (Bioorg Med Chem Lett, 2008).
In brackets after ≈: the same amount, converted by molar mass.

Key:
physchem [1] = conditions: phosphate buffered saline, pH 7
physchem [2] = conditions: 0.01N HCl
physchem [3] = conditions: simulated intestinal fluid
in vivo [4] = conditions: Sprague-Dawley, rat, iv, 1 mg/kg
Rattus norvegicus [5] = species: Rattus norvegicus; conditions: in vivo, po, 5 mg/kg
Rattus norvegicus [6] = species: Rattus norvegicus; conditions: in vivo, po, 5 mg/kg; remark: listed apart in the source
in vivo [7] = conditions: Sprague-Dawley, rat, po, 5 mg/kg

Structure (SMILES)	solubility (physchem [1]) [µg/mL]	solubility (physchem [2]) [µg/mL]	clearance (in vivo [4]) [mL/min/kg]	Vdss (Rattus norvegicus [5]) [L/kg]	AUC (Rattus norvegicus [6]) [ng·h/mL]	half-life (in vivo [7]) [h]	solubility (physchem [3]) [µg/mL]
CC(=O)Nc1nc2c(Oc3cc(-c4ccc(C(F)(F)F)cc4NC(=O)CCN(C)C)ncn3)cccc2s1	3.9 (≈ 7.16 µM)	81 (≈ 149 µM)					30 (≈ 55.1 µM)
CC(=O)Nc1nc2c(Oc3cc(-c4ccc(C(F)(F)F)cc4)ncn3)cccc2s1 [AMG-517]	< 1	< 1		1.6	5400	6.3	
CC(=O)Nc1nc2c(Oc3cc(-c4ccc(C(F)(F)F)cc4NC(=O)[C@@H]4CCC(C)N4)ncn3)cccc2s1 (stereo not given in full)	7.4 (≈ 13.3 µM)	120 (≈ 216 µM)	10.3				59 (≈ 106 µM)

Now from value to molecule, other results behind:

solubility (physchem [1]) [µg/mL]	solubility (physchem [2]) [µg/mL]	clearance (in vivo [4]) [mL/min/kg]	Vdss (Rattus norvegicus [5]) [L/kg]	AUC (Rattus norvegicus [6]) [ng·h/mL]	half-life (in vivo [7]) [h]	Structure (SMILES)	solubility (physchem [3]) [µg/mL]
1 (≈ 1.67 µM)	> 200	> 66.7				CC(=O)Nc1nc2c(Oc3cc(-c4ccc(C(F)(F)F)cc4NC(=O)[C@H]4CCCN4CC(C)C)ncn3)cccc2s1	39 (≈ 65.1 µM)
6 (≈ 10 µM)	> 200	> 66.7				CC(=O)Nc1nc2c(Oc3cc(-c4ccc(C(F)(F)F)cc4NC(=O)[C@@H]4CCCN4CC(C)C)ncn3)cccc2s1	39 (≈ 65.1 µM)
